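All cell lines were grown in 96-well plates and treated with compound for 48 hours. At the TGI there is no net growth.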
Legend:
Test in all cases: growth of human tumour cells (NCI), 48 h
MOLT-4 leukemia = tested on: MOLT-4 leukemia
SF-539 CNS = tested on: SF-539 CNS
MDA-MB-435 = tested on: MDA-MB-435
NCI-H23 lung = tested on: NCI-H23 lung
NCI-H522 lung = tested on: NCI-H522 lung
HT29 colon = tested on: HT29 colon
BT-549 breast = tested on: BT-549 breast
U251 CNS = tested on: U251 CNS
HCT-116 colon = tested on: HCT-116 colon
KM12 colon = tested on: KM12 colon
A549 NSCLC = tested on: A549 NSCLC
HOP-62 NSCLC = tested on: HOP-62 NSCLC
SW-620 colon = tested on: SW-620 colon
EKVX NSCLC = tested on: EKVX NSCLC
A498 renal = tested on: A498 renal
ACHN renal = tested on: ACHN renal
MALME-3M melanoma = tested on: MALME-3M melanoma
NCI-H226 lung = tested on: NCI-H226 lung
SK-MEL-5 melanoma = tested on: SK-MEL-5 melanoma
UACC-62 melanoma = tested on: UACC-62 melanoma
SK-MEL-2 melanoma = tested on: SK-MEL-2 melanoma
SF-268 CNS = tested on: SF-268 CNS
CCRF-CEM leukemia = tested on: CCRF-CEM leukemia
UACC-257 melanoma = tested on: UACC-257 melanoma
OVCAR-4 ovarian = tested on: OVCAR-4 ovarian
786-0 renal = tested on: 786-0 renal
IGROV1 ovarian = tested on: IGROV1 ovarian
RXF 393 renal = tested on: RXF 393 renal
HL-60(TB) leukemia = tested on: HL-60(TB) leukemia
SK-MEL-28 melanoma = tested on: SK-MEL-28 melanoma
LOX IMVI melanoma = tested on: LOX IMVI melanoma
T-47D breast = tested on: T-47D breast
M14 melanoma = tested on: M14 melanoma
K-562 leukemia = tested on: K-562 leukemia
HS 578T breast = tested on: HS 578T breast
SK-OV-3 ovarian = tested on: SK-OV-3 ovarian
DU-145 prostate = tested on: DU-145 prostate
OVCAR-5 ovarian = tested on: OVCAR-5 ovarian
MDA-N = tested on: MDA-N
CAKI-1 renal = tested on: CAKI-1 renal
SNB-19 CNS = tested on: SNB-19 CNS
MDA-MB-231 breast = tested on: MDA-MB-231 breast
NCI/ADR-RES ovarian = tested on: NCI/ADR-RES ovarian
UO-31 renal = tested on: UO-31 renal
TK-10 renal = tested on: TK-10 renal
HOP-92 NSCLC = tested on: HOP-92 NSCLC
COLO 205 colon = tested on: COLO 205 colon
RPMI-8226 leukemia = tested on: RPMI-8226 leukemia
SN12C renal = tested on: SN12C renal
SF-295 CNS = tested on: SF-295 CNS
MCF7 breast = tested on: MCF7 breast
HCT-15 colon = tested on: HCT-15 colon
PC-3 prostate = tested on: PC-3 prostate
OVCAR-3 ovarian = tested on: OVCAR-3 ovarian
NCI-H460 lung = tested on: NCI-H460 lung
OVCAR-8 ovarian = tested on: OVCAR-8 ovarian
SR leukemia = tested on: SR leukemia
HCC-2998 colon = tested on: HCC-2998 colon
SNB-75 CNS = tested on: SNB-75 CNS

In the case of `CCCn1c(C23CC4CC(CC(C4)C2)C3)nc2ccc(Cl)cc2c1=O`, the TGI (MOLT-4 leukemia) is reported as greater than 100 µM, the TGI (SF-539 CNS) is reported as greater than 100 µM and the TGI (MDA-MB-435) is reported as greater than 100 µM. For the same molecule, the TGI (NCI-H23 lung) was greater than 100 µM, the TGI (NCI-H522 lung) was greater than 100 µM and the TGI (HT29 colon) was 80.2 µM. It also gave a TGI (BT-549 breast) greater than 100 µM, a TGI (U251 CNS) greater than 100 µM and a TGI (HCT-116 colon) greater than 100 µM. For the same molecule, the TGI (KM12 colon) was greater than 100 µM, the TGI (A549 NSCLC) was greater than 100 µM and the TGI (HOP-62 NSCLC) was 70.1 µM. For the same molecule, the TGI (SW-620 colon) was greater than 100 µM, the TGI (EKVX NSCLC) was 95.4 µM and the TGI (A498 renal) was 66.1 µM. The TGI (ACHN renal) was 47.9 µM, the TGI (MALME-3M melanoma) was greater than 100 µM and the TGI (NCI-H226 lung) was greater than 100 µM. The TGI (SK-MEL-5 melanoma) was greater than 100 µM, the TGI (UACC-62 melanoma) was greater than 100 µM and the TGI (SK-MEL-2 melanoma) was greater than 100 µM. The TGI (SF-268 CNS) was greater than 100 µM, the TGI (CCRF-CEM leukemia) was greater than 100 µM and the TGI (UACC-257 melanoma) was greater than 100 µM. For the same molecule, the TGI (OVCAR-4 ovarian) was greater than 100 µM, the TGI (786-0 renal) was greater than 100 µM and the TGI (IGROV1 ovarian) was greater than 100 µM. It also gave a TGI (RXF 393 renal) of 29 µM, a TGI (HL-60(TB) leukemia) greater than 100 µM and a TGI (SK-MEL-28 melanoma) greater than 100 µM. It also gave a TGI (LOX IMVI melanoma) greater than 100 µM, a TGI (T-47D breast) greater than 100 µM and a TGI (M14 melanoma) greater than 100 µM. The TGI (K-562 leukemia) was greater than 100 µM, the TGI (HS 578T breast) was greater than 100 µM and the TGI (SK-OV-3 ovarian) was greater than 100 µM. It also gave a TGI (DU-145 prostate) of 95.9 µM, a TGI (OVCAR-5 ovarian) greater than 100 µM and a TGI (MDA-N) greater than 100 µM. It also gave a TGI (CAKI-1 renal) greater than 100 µM, a TGI (SNB-19 CNS) greater than 100 µM and a TGI (MDA-MB-231 breast) greater than 100 µM. The TGI (NCI/ADR-RES ovarian) was greater than 100 µM, the TGI (UO-31 renal) was 39.5 µM and the TGI (TK-10 renal) was greater than 100 µM. For the same molecule, the TGI (HOP-92 NSCLC) was greater than 100 µM, the TGI (COLO 205 colon) was greater than 100 µM and the TGI (RPMI-8226 leukemia) was greater than 100 µM. It also gave a TGI (SN12C renal) greater than 100 µM, a TGI (SF-295 CNS) greater than 100 µM and a TGI (MCF7 breast) greater than 100 µM. It also gave a TGI (HCT-15 colon) greater than 100 µM, a TGI (PC-3 prostate) greater than 100 µM and a TGI (OVCAR-3 ovarian) greater than 100 µM. For the same molecule, the TGI (NCI-H460 lung) was greater than 100 µM and the TGI (OVCAR-8 ovarian) was greater than 100 µM.

`O=P(Oc1ccc(Cl)cc1)(Oc1ccc(Cl)cc1)N1CC1` gave a TGI (MOLT-4 leukemia) greater than 10 µM, a TGI (SF-539 CNS) greater than 10 µM and a TGI (MDA-MB-435) greater than 10 µM. For the same molecule, the TGI (NCI-H23 lung) was greater than 10 µM, the TGI (HT29 colon) was greater than 10 µM and the TGI (BT-549 breast) was greater than 10 µM. It also gave a TGI (U251 CNS) greater than 10 µM, a TGI (KM12 colon) greater than 10 µM and a TGI (A549 NSCLC) greater than 10 µM. The TGI (HOP-62 NSCLC) was greater than 10 µM, the TGI (SW-620 colon) was greater than 10 µM and the TGI (EKVX NSCLC) was greater than 10 µM. For the same molecule, the TGI (A498 renal) was greater than 10 µM, the TGI (ACHN renal) was greater than 10 µM and the TGI (MALME-3M melanoma) was greater than 10 µM. For the same molecule, the TGI (NCI-H226 lung) was greater than 10 µM, the TGI (SK-MEL-5 melanoma) was greater than 10 µM and the TGI (UACC-62 melanoma) was greater than 10 µM. It also gave a TGI (SK-MEL-2 melanoma) greater than 10 µM, a TGI (SF-268 CNS) greater than 10 µM and a TGI (CCRF-CEM leukemia) of 0.429 µM. For the same molecule, the TGI (UACC-257 melanoma) was greater than 10 µM, the TGI (OVCAR-4 ovarian) was greater than 10 µM and the TGI (786-0 renal) was greater than 10 µM. For the same molecule, the TGI (SR leukemia) was greater than 10 µM, the TGI (HL-60(TB) leukemia) was greater than 10 µM and the TGI (SK-MEL-28 melanoma) was greater than 10 µM. For the same molecule, the TGI (LOX IMVI melanoma) was greater than 10 µM, the TGI (T-47D breast) was greater than 10 µM and the TGI (M14 melanoma) was greater than 10 µM. The TGI (K-562 leukemia) was greater than 10 µM, the TGI (HS 578T breast) was greater than 10 µM and the TGI (SK-OV-3 ovarian) was greater than 10 µM. For the same molecule, the TGI (DU-145 prostate) was greater than 10 µM, the TGI (OVCAR-5 ovarian) was greater than 10 µM and the TGI (MDA-N) was greater than 10 µM. The TGI (SNB-19 CNS) was greater than 10 µM, the TGI (MDA-MB-231 breast) was greater than 10 µM and the TGI (NCI/ADR-RES ovarian) was greater than 10 µM. It also gave a TGI (UO-31 renal) greater than 10 µM, a TGI (TK-10 renal) greater than 10 µM and a TGI (HCC-2998 colon) greater than 10 µM. For the same molecule, the TGI (COLO 205 colon) was greater than 10 µM, the TGI (RPMI-8226 leukemia) was greater than 10 µM and the TGI (SN12C renal) was greater than 10 µM. It also gave a TGI (SF-295 CNS) greater than 10 µM, a TGI (MCF7 breast) greater than 10 µM and a TGI (HCT-15 colon) greater than 10 µM. It also gave a TGI (PC-3 prostate) greater than 10 µM, a TGI (OVCAR-3 ovarian) greater than 10 µM and a TGI (NCI-H460 lung) greater than 10 µM. The TGI (SNB-75 CNS) was greater than 10 µM and the TGI (OVCAR-8 ovarian) was greater than 10 µM.

`Cc1c2c3cc(O)ccc3nc-2n(C)c2ccccc12` gave a TGI (MOLT-4 leukemia) of 3.32 µM, a TGI (SF-539 CNS) of 4.98 µM and a TGI (MDA-MB-435) of 4.62 µM. The TGI (NCI-H23 lung) was 8.61 µM, the TGI (HT29 colon) was 7.26 µM and the TGI (BT-549 breast) was 8.52 µM. The TGI (U251 CNS) was 6.91 µM, the TGI (HCT-116 colon) was 10.1 µM and the TGI (KM12 colon) was 5.28 µM. It also gave a TGI (A549 NSCLC) of 3.48 µM, a TGI (HOP-62 NSCLC) of 7.99 µM and a TGI (SW-620 colon) of 2.7 µM. For the same molecule, the TGI (EKVX NSCLC) was 6.91 µM, the TGI (ACHN renal) was 10.3 µM and the TGI (MALME-3M melanoma) was 3.44 µM. It also gave a TGI (NCI-H226 lung) of 8.54 µM, a TGI (SK-MEL-5 melanoma) of 2.29 µM and a TGI (UACC-62 melanoma) of 3.21 µM. The TGI (SF-268 CNS) was 8.02 µM, the TGI (CCRF-CEM leukemia) was 4.37 µM and the TGI (UACC-257 melanoma) was 8.05 µM. For the same molecule, the TGI (786-0 renal) was 10.5 µM, the TGI (IGROV1 ovarian) was 8.92 µM and the TGI (SR leukemia) was 21.3 µM. The TGI (RXF 393 renal) was 2.86 µM, the TGI (HL-60(TB) leukemia) was 19.8 µM and the TGI (SK-MEL-28 melanoma) was 5.97 µM. It also gave a TGI (T-47D breast) of 17.1 µM, a TGI (M14 melanoma) of 4.6 µM and a TGI (K-562 leukemia) of 7.5 µM. The TGI (HS 578T breast) was 8.21 µM, the TGI (SK-OV-3 ovarian) was 6.22 µM and the TGI (DU-145 prostate) was 14.3 µM. It also gave a TGI (OVCAR-5 ovarian) of 8.85 µM, a TGI (MDA-N) of 8.37 µM and a TGI (SNB-19 CNS) of 15.1 µM. For the same molecule, the TGI (NCI/ADR-RES ovarian) was 3.4 µM, the TGI (UO-31 renal) was 2.72 µM and the TGI (TK-10 renal) was 9.82 µM. It also gave a TGI (HOP-92 NSCLC) of 5.21 µM, a TGI (HCC-2998 colon) of 6.28 µM and a TGI (RPMI-8226 leukemia) greater than 100 µM. For the same molecule, the TGI (SN12C renal) was 4.38 µM, the TGI (SF-295 CNS) was 13 µM and the TGI (MCF7 breast) was 9.82 µM. It also gave a TGI (HCT-15 colon) of 10.5 µM, a TGI (PC-3 prostate) of 5.94 µM and a TGI (OVCAR-3 ovarian) of 6.07 µM. It also gave a TGI (NCI-H460 lung) of 5.11 µM, a TGI (SNB-75 CNS) of 5.83 µM and a TGI (OVCAR-8 ovarian) of 10.6 µM.

— PubChem BioAssay (NCI)
